Assays:
[1] = tested on: primary human hepatocytes; test: In vitro metabolite profiling in primary human hepatocytes with or without proadifen; assay type: in vitro ADME; settings: for % Parent of drug-related material: incubations in primary human hepatocytes, 1 μM test compound; for Contribution of amide hydrolysis to metabolism (incl. secondary metabolites): abundance of deacetylated metabolites relative to all metabolites
Description: In vitro metabolite profiling to evaluate the involvement of non-CYP-enzyme-mediated metabolic pathways such as hydrolysis in addition to CYP-mediated pathways is based on the semiquantitative analysis of the formation of prototypic metabolites in incubations with liver microsomes (with and without beta-nicotinamide adenine dinucleotide phosphate, NADPH), primary human hepatocytes (with and without the pan-CYP inhibitor proadifen) and recombinant CYP enzymes.
An additional measure to identify CYP-independent metabolic pathways is the use of the pan-CYP inhibitor proadifen in incubations of the test compound with human hepatocytes. In presence of proadifen, the CYP-related pathways are inhibited and metabolites would primarily be generated via non-CYP pathways.
The involvement of non-CYP-enzymes in metabolic transformations of the test compound was further investigated using primary human hepatocytes in suspension in presence or absence of the pan-CYP inhibitor proadifen (50 μM final incubation concentration). After recovery from cryopreservation, human hepatocytes were incubated in Dulbecco's modified eagle medium supplemented with 3.5 μg glucagon/500 ml, 2.5 mg insulin/500 ml and 3.75 mg/500 ml hydrocortisone containing 5% (v/v) human serum.
Following a 30 min preincubation in a cell culture incubator (37° C., 10% CO2) with or without 50 μM proadifen, test compound solution was spiked into the hepatocyte suspension to obtain a final cell density of 1.0*10^6 to 4.0*10^6 cells/ml (depending on the metabolic turnover rate of the compound observed with primary human hepatocytes), a final test compound concentration of 1 μM, and a final DMSO concentration of 0.05% (v/v).
The cells were incubated for six hours (incubator, horizontal shaker) and samples were removed from the incubation after 0, 0.5, 1, 2, 4 or 6 hours, depending on the metabolic turnover rate. Samples were quenched with acetonitrile and pelleted by centrifugation. The supernatant was transferred to a 96-deepwell plate, evaporated under nitrogen, and resuspended prior to bioanalysis by liquid chromatography-high resolution mass spectrometry for identification of putative metabolites.
The contribution of hydrolysis was calculated based on the abundance of the respective deacetylated metabolite(s) of the compounds of the present invention relative to all metabolites observed in incubations with human hepatocytes.

[2] = biological target: hERG channel (Homo sapiens (Human), UniProt Q12809); test: hERG channel assay (whole-cell patch clamp); assay type: cell-based; settings: HEK293 cells stably transfected with hERG cDNA
Sequence of hERG channel (Q12809 whole entry): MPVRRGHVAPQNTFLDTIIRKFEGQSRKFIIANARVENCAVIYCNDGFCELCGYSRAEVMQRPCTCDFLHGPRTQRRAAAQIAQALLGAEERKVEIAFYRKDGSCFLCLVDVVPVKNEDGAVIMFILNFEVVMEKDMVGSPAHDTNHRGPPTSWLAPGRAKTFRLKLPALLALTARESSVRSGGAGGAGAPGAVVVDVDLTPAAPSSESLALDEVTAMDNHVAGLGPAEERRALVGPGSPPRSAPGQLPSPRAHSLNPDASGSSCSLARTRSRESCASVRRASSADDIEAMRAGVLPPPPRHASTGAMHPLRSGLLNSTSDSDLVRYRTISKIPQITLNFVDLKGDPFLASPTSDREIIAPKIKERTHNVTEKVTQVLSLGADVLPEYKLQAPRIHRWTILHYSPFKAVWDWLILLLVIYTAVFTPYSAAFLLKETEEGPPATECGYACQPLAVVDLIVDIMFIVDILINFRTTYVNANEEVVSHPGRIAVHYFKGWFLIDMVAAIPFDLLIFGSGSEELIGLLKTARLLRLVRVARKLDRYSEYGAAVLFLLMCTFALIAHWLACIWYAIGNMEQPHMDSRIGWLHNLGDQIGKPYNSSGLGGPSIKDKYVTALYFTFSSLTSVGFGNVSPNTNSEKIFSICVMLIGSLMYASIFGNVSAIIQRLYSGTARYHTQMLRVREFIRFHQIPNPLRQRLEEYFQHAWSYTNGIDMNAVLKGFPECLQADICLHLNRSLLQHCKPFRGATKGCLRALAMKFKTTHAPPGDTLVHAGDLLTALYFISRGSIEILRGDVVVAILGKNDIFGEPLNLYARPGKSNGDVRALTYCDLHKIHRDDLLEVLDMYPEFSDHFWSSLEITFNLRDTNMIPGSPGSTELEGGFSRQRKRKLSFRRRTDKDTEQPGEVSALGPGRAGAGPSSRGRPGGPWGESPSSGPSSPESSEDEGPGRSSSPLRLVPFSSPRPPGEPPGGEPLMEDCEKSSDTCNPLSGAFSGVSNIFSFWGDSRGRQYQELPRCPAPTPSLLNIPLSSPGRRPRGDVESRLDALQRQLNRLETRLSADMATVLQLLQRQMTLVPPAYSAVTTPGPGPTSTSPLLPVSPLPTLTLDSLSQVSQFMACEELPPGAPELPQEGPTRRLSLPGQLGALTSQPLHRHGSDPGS
Excerpt: hERG Channel inhibition of compounds of the present invention was investigated as follows:
HEK (human embryonic kidney) 293 cells were stably transfected with hERG cDNA. Cells determined for use in patch clamp experiments were cultivated without antibiotic.
Cells were superfused with a bath solution containing (mM): NaCl (137), KCl (4.0), MgCl2 (1.0), CaCl2(1.8), Glucose (10), HEPES (10), pH 7.4 with NaOH. Patch pipettes were made from borosilicate glass tubing using a pipette and filled with pipette solution containing (mM): K-aspartate (130), MgCl2(5.0), EGTA (5.0), K2ATP (4.0), HEPES (10.0), pH 7.2 with KOH. Resistance of the microelectrodes was typically in the range between 2 MΩ and 5 MΩ.
Membrane currents were recorded using an EPC-10 patch clamp amplifier (HEKA Electronics, Lambrecht, FRG) and PatchMaster software (HEKA). hERG-mediated membrane currents were recorded at typically 28° C., using the whole-cell configuration of the patch-clamp technique. Transfected HEK293 cells were clamped at a holding potential of −60 mV and hERG-mediated inactivating tail currents were elicited using a pulse pattern with fixed amplitudes (activation/inactivation: 40 mV for 2000 ms; recovery: 120 mV for 2 ms; ramp to 40 mV in 2 ms; inactivating tail current: 40 mV for 50 ms) repeated at 15 s intervals. During each inter-pulse interval 4 pulses scaled down by a factor of 0.2 were recorded for a P/n leak subtraction procedure. Rs compensation was employed up to a level that safely allows recording devoid of ringing. The remaining uncompensated Rs was recorded as well as actual temperature and holding current.
The concentrations of the test item were applied sequentially on each of the different cells investigated. A steady state level of baseline current was measured for at least 5 sweeps prior to the application of the first test article concentration. The test item was dissolved in DMSO to yield a stock solution of 1000-fold the highest final concentration. This stock was diluted further in DMSO to stock solutions of 1000-fold the remaining final concentrations. Final dilutions in extracellular buffer were prepared freshly from these stocks by a 1:1000 dilution step each before starting the experiments.
Peak current amplitudes were measured 3 ms after the ramp to +40 mV. For baseline and each concentration, the peak currents of the three last sweeps before application of the next concentration were averaged. Residual currents (I/I0) were calculated for each cell as the fraction of actual average peak current and average baseline peak current. Current inhibition was expressed as […]. Current inhibition for all cells was reported as mean ±SD. If possible, from mean current inhibition data the IC50 was estimated based on the Hill equation using a least squares procedure.

[3] = tested on: human hepatocytes; test: Metabolic stability in human hepatocytes; assay type: in vitro ADME; settings: human hepatocyte suspension, 1 μM; predicted hepatic clearance as percentage of hepatic blood flow
Description: The metabolic degradation of a test compound was assayed in a human hepatocyte suspension. After recovery from cryopreservation, human hepatocytes were diluted in Dulbecco's modified eagle medium (supplemented with 3.5 μg glucagon/500 mL, 2.5 mg insulin/500 mL, 3.75 mg hydrocortisone/500 mL, 5% human serum) to obtain a final cell density of 1.0×10^6 cells/mL or 4.0×10^6 cells/mL, depending on the metabolic turnover rate of the test compound.
Following a 30 minutes preincubation in a cell culture incubator (37° C., 10% CO2), test compound solution was spiked into the hepatocyte suspension, resulting in a final test compound concentration of 1 μM and a final DMSO concentration of 0.05% (v/v).
The cell suspension was incubated at 37° C. (cell culture incubator, horizontal shaker) and samples were removed from the incubation after 0, 0.5, 1, 2, 4 and 6 hours. Samples were quenched with acetonitrile (containing internal standard) and pelleted by centrifugation. The supernatant was transferred to a 96-deepwell plate, and prepared for analysis of decline of parent compound by HPLC-MS/MS.
The percentage of remaining test compound was calculated using the peak area ratio (test compound/internal standard) of each incubation time point relative to the time point 0 peak area ratio. The log-transformed data were plotted versus incubation time, and the absolute value of the slope obtained by linear regression analysis was used to estimate in vitro half-life (T1/2).
In vitro intrinsic clearance (CLint) was calculated from in vitro T1/2 and scaled to whole liver using a hepatocellularity of 120×10^6 cells/g liver, a human liver per body weight of 25.7 g liver/kg as well as in vitro incubation parameters, applying the following equation: CL_[…]_IN VIVO[mL/min/kg]=(CL_[…][μL/min/10^6 cells]×hepatocellularity[10^6 cells/g liver]×liver factor[g/kg body weight])/1000
Hepatic in vivo blood clearance (CL) was predicted according to the well-stirred liver model considering an average liver blood flow (QH) of 20.7 mL/min/kg: CL[mL/min/kg]=CL_[…]_IN VIVO[mL/min/kg]×hepatic blood flow[mL/min/kg]/(CL_[…]_IN VIVO[mL/min/kg]+hepatic blood flow[mL/min/kg])
Results were expressed as percentage of hepatic blood flow: QH[%]=CL[mL/min/kg]/hepatic blood flow[mL/min/kg])

SMILES | % Parent of drug-related material [1] [%] | Contribution of amide hydrolysis to metabolism (incl. secondary metabolites) ([1]; primary human hepatocytes) [%] | IC50 [2] [µM] | Human HepStab [3] [% QH] | % Inhibition by 50 μM proadifen ([1]; formation of secondary metabolite m443 (of m429), primary human hepatocytes)
CC(=O)N1CC[C@@H](NC(=O)c2nsnc2N2CC(Oc3cc(F)cc(F)c3)C2)C1 [Example 15a] | 92 | 6 | > 10 | 6.4 | 
CC(=O)N1C[C@H](NC(=O)c2nccnc2N2CC(Oc3cc(F)c(F)c(F)c3)C2)C(F)(F)C1 [Example 11b] | 82 | 49 | > 10 | 11.4 | 82^6 % untreated control
CC(=O)N1C[C@H](NC(=O)c2nccnc2N2CC(Oc3cc(F)cc(F)c3)C2)C(F)(F)C1 [Example 10a] | 86 | 51 | > 10 | 15.3 | 

From patent US12115157B2, “3-phenoxyazetidin-1-yl-heteroaryl pyrrolidine derivatives and the use thereof as medicament” (Boehringer Ingelheim International GmbH, priority 2021, dated 2024)
